The numbers were not newly measured in US7417165B2, “Crystalline forms of pregabalin” (Teva Pharmaceutical Industries Ltd., priority 2005, dated 2008), which cites them from elsewhere.

In data set [1] the test system is GAD (L-glutamic acid decarboxylase). The following applies: background statement, no data.
The next data set deals with seizure. The following applies: background statement, no data.

With `CC(C)C[C@H](CN)CC(=O)O` [(S)-Pregabalin, (S)-(+)-3-(aminomethyl)-5-methylhexanoic acid], the “activation of GAD (L-glutamic acid decarboxylase)” value in data set [1] is given as “activate”. The “protective effect on seizure” value in the data set on seizure is recorded as “dose dependent protective effect”.
